# According to PubChem BioAssay (NCI):
# Where “and” joins values, the source holds several entries; their conditions need not be identical. Equal values may be shown once.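 Protocol summary: plate cells (96-well), add compound at 5 concentrations, incubate 48 h, interpolate endpoints linearly. GI50 is the concentration that inhibits growth by half. TGI is the concentration that stops growth completely.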
# Columns and labels:
# Assay in all cases: NCI-60 cell line screen, 48 h
# EKVX NSCLC = test system: EKVX NSCLC
# HOP-62 NSCLC = test system: HOP-62 NSCLC
# HOP-92 NSCLC = test system: HOP-92 NSCLC
# HT29 colon = test system: HT29 colon
# K-562 leukemia = test system: K-562 leukemia
# MDA-MB-435 = test system: MDA-MB-435
# NCI-H23 lung = test system: NCI-H23 lung
# OVCAR-3 ovarian = test system: OVCAR-3 ovarian
# SK-OV-3 ovarian = test system: SK-OV-3 ovarian
# SW-620 colon = test system: SW-620 colon
Compound,GI50 (EKVX NSCLC),TGI (EKVX NSCLC),GI50 (HOP-62 NSCLC),TGI (HOP-62 NSCLC),GI50 (HOP-92 NSCLC),TGI (HOP-92 NSCLC),GI50 (HT29 colon),TGI (HT29 colon),GI50 (K-562 leukemia),TGI (K-562 leukemia),GI50 (MDA-MB-435),TGI (MDA-MB-435),GI50 (NCI-H23 lung),TGI (NCI-H23 lung),GI50 (OVCAR-3 ovarian),TGI (OVCAR-3 ovarian),GI50 (SK-OV-3 ovarian),TGI (SK-OV-3 ovarian),GI50 (SW-620 colon),TGI (SW-620 colon)
CC(C)=CCC[C@](C)(O)[C@H]1CC[C@]2(C)[C@@H]1CC[C@@H]1[C@@]3(C)CC[C@H](OC(=O)CCC(=O)O)C(C)(C)[C@@H]3CC[C@]12C,37.9 µM,> 100 µM,37.6 µM,> 100 µM,14.5 µM,35.9 µM,29.2 µM,> 100 µM,23.8 µM,> 100 µM,29.3 µM,> 100 µM,30.8 µM,> 100 µM,15.9 µM,30.9 µM,47.6 µM,> 100 µM,35.4 µM,> 100 µM
COc1cc(Nc2ncc(-c3ccccc3)o2)cc(OC)c1OC,> 6.86 µM,> 25 µM,3.47 µM,> 25 µM,4.27 µM,> 25 µM,0.951 µM,> 25 µM,0.401 µM,> 25 µM,0.154 µM,> 5.89 µM,2.84 µM,> 25 µM,3.94 µM,24.9 µM,2.89 µM,> 25 µM,0.986 µM,> 25 µM
Cc1cc(I)cc(CN(C)CCCCN2CCCC2)c1O,34.8 µM,> 100 µM,16.4 µM,33.9 µM,15.3 µM,70.2 µM,5.7 µM,22 µM,11.3 µM,24.2 µM,11.1 µM,27.9 µM,34.7 µM,> 100 µM,33.5 µM,> 100 µM,21.6 µM,67.8 µM,17.2 µM,39.6 µM
Cc1cc(C#Cc2ccccc2)ccc1-n1c(/C=C/c2ccc(O)cc2)nc2ccccc2c1=O,2.43 µM,> 100 µM,13.1 µM,> 100 µM,2.5 µM,7.26 µM,3.33 µM,16.6 µM,2 µM,> 100 µM,2.82 µM,22.8 µM,3.62 µM,> 100 µM,3.6 µM,25.7 µM,9.91 µM,> 100 µM,4.08 µM,> 100 µM
O=C(O)c1c(Cl)c(Cl)c(Cl)c(Cl)c1-c1c2cc(I)c(=O)c(I)c-2oc2c(I)c(O)c(I)cc12,63.5 µM,> 200 µM,80.7 µM and 31 µM,87.4 µM,19.3 µM and 29.7 µM,68 µM and 71.6 µM,52.6 µM,154 µM,39.2 µM and 46 µM,116 µM,62.9 µM and 41.4 µM,93 µM,47 µM,125 µM,32.1 µM and 33 µM,72.1 µM,32.4 µM,78.6 µM,74.4 µM and 37.6 µM,79.1 µM
COCCOC(=O)CCn1cc(F)c(=O)[nH]c1=O,57.8 µg/mL,> 150 µg/mL,17.3 µg/mL,> 150 µg/mL,77.6 µg/mL,> 150 µg/mL,4.55 µg/mL,> 150 µg/mL,21.3 µg/mL,> 150 µg/mL,5.67 µg/mL,> 150 µg/mL,17.2 µg/mL,> 150 µg/mL,5.79 µg/mL,> 150 µg/mL,37.1 µg/mL,> 150 µg/mL,26.9 µg/mL,> 150 µg/mL
COc1cc(C=NCC(=O)CSC(c2ccccc2)c2ccccc2)cc(OC)c1OC,27.8 µM,> 100 µM,33.2 µM,> 100 µM,8.59 µM,> 100 µM,8 µM,83.6 µM,8.63 µM,93.7 µM,25.1 µM,80.2 µM,26 µM,> 100 µM,13.3 µM,> 100 µM,23.3 µM,76 µM,32.7 µM,> 100 µM
NC(=NC1C2CC3CC(C2)CC1C3)Nc1ccc(I)cc1 (stereo not given),3.43 µM,14.3 µM,2.46 µM,8.38 µM,1.6 µM,5.21 µM,3.1 µM,10.8 µM,3.29 µM,15.7 µM,3.8 µM,13.6 µM,2.77 µM,10.7 µM,3.97 µM,15 µM,8.68 µM,23.3 µM,2.64 µM,11.6 µM
O=c1c2c(=NCCCN3CCCC3)cc3c(=O)n(CCCN4CCCC4)c(=O)c4c(NCCCN5CCCC5)cc(c(O)n1CCCN1CCCC1)c2c4-3,2.79 µM,12.9 µM,1.42 µM,4.54 µM,2.15 µM,18.8 µM,1.51 µM,6.49 µM,3.36 µM,> 100 µM,3.04 µM,11.3 µM,5.43 µM,24.1 µM,2.88 µM,7.03 µM,2.4 µM,6.93 µM,1.72 µM,14.5 µM
CC(Cl)CC(=O)Nc1ccc2c(c1)oc(=O)c1cc(NC(=O)CC(C)Cl)ccc12 (stereo not given),27 µM,88 µM,11.5 µM,28.2 µM,2.09 µM,10.7 µM,12.2 µM,34.5 µM,13.8 µM,33.6 µM,18.3 µM,> 100 µM,50 µM,> 100 µM,14.3 µM,31.1 µM,15.6 µM,76.7 µM,33.3 µM,> 100 µM
COc1cc([N+](=O)[O-])c2ncccc2c1O,18.8 µM,78.1 µM,2.05 µM,4.96 µM,47.1 µM,> 100 µM,2.26 µM,22.9 µM,38.2 µM,> 100 µM,3.53 µM,14.8 µM,1.37 µM,4.8 µM,4.76 µM,37.3 µM,3.36 µM,14.4 µM,4.07 µM,> 100 µM
CCn1c(-c2cc3ccccc3cc2OC(=O)c2ccccc2)n[nH]c1=S,10.7 µM,> 50 µM,> 50 µM,> 50 µM,> 50 µM,> 50 µM,42.4 µM,> 50 µM,22.5 µM,> 50 µM,> 50 µM,> 50 µM,22.5 µM,> 50 µM,3.19 µM,> 50 µM,> 50 µM,> 50 µM,> 50 µM,> 50 µM
